The text below walks through data of patent US20240240226A1, “FLUOROGENIC ASSAY FOR RAPID SCREENING OF BACTERIAL BETA-LACTAMASE ACTIVITY” (The Board of Trustees of the Leland Stanford Junior …, priority 2021, published 2024).

The target of one assay is T1, TEM-1 Bla (Escherichia coli, UniProt P62593).
T1 construct: TEV(Cys) (TEV site / Cys element as named in the plasmid); made in house; host or cells: E. coli (BL21 or TOP10)
The assay is described as follows: CDA fluorescence turn-on with recombinant TEM-1 Bla, esterase and H2O2. Type of assay: biochemical.

The test system of another assay is E. coli/TEM-1. The assay is described as follows: CDA detection of live E. coli expressing TEM-1 Bla. Format: cell-based. Here is the method:
FIG. 3 illustrates the characterization of CDA with HRP, H2O2, E. coli expressing TEM-1 Bla (E. coli/TEM-1) and IMP-1 carbapenemase (E. coli/IMP-1), and K. pneumoniae expressing KPC carbapenemase (K. pneumoniae/KPC). a) Fluorescence enhancement of CDA incubated with different concentrations of E. coli expressing TEM-1 Bla. b) Fluorescence enhancement of CDA; HRP (1 unit/mL), H2O2 (1 μM), and either viable E. coli expressing TEM-1 Bla or bacterial lysate extracted from equal c.f.u. per milliliter. c) Fluorescence enhancement of CDA incubated with different concentrations of E. coli expressing TEM-1 Bla (H2O2, 1 mM). d) Fluorescent intensity of E. coli and E. coli/TEM-1 preincubated with CDA for 20 hours upon addition of H2O2 (500 μM) for 5 min. Error bars represent ±SD, n=3. * p<0.0332; **p<0.0021, ****p<0.0001, ns: not significant. e) Fluorescence enhancement of CDA incubated with different concentrations of E. coli expressing IMP-1 carbapenemase in the presence of H2O2 (1 mM). f) Fluorescence enhancement of CDA incubated with different concentrations of K. pneumoniae expressing KPC carbapenemase (H2O2, 1 mM). […] Data were collected on a Tecan Safire microplate reader with excitation at 570 nm and emission at 600 nm. […]
It was studied if CDA could report β-lactamase activity in live E. coli and Klebsiella pneumoniae (K. pneumoniae) which are commonly found in many infections. Three transformed E. coli strains expressing the most clinically prevalent β-lactamases including TEM-1 Bla (E. coli/TEM-1) and two carbapenemases were evaluated: a metallo-β-lactamase IMP-1 (E. coli/IMP-1) and a unique class A β-lactamase KPC-3 (E. coli/KPC-3) that hydrolyze carbapenem antibiotics. […]
To address the question of whether a higher concentration of H2O2 would equilibrate across membranes of viable bacteria and accelerate the oxidation of processed CDA, a serial dilution of H2O2 (100 μM, 500 μM, 1 mM, 2 mM) was incubated with CDA and different concentrations of E. coli and E. coli/TEM-1 for a longitudinal reading (FIGS. 3c, 21b, and 22). […]

In a further assay the test system is E. coli/IMP-1. The assay is described as follows: CDA/H2O2 detection of live E. coli expressing IMP-1 carbapenemase. Format: cell-based. Particulars: H2O2 1 mM, within 2 hours. The protocol: FIG. 3 illustrates the characterization of CDA with HRP, H2O2, E. coli expressing TEM-1 Bla (E. coli/TEM-1) and IMP-1 carbapenemase (E. coli/IMP-1), and K. pneumoniae expressing KPC carbapenemase (K. pneumoniae/KPC). a) Fluorescence enhancement of CDA incubated with different concentrations of E. coli expressing TEM-1 Bla. b) Fluorescence enhancement of CDA; HRP (1 unit/mL), H2O2 (1 μM), and either viable E. coli expressing TEM-1 Bla or bacterial lysate extracted from equal c.f.u. per milliliter. c) Fluorescence enhancement of CDA incubated with different concentrations of E. coli expressing TEM-1 Bla (H2O2, 1 mM). d) Fluorescent intensity of E. coli and E. coli/TEM-1 preincubated with CDA for 20 hours upon addition of H2O2 (500 μM) for 5 min. Error bars represent ±SD, n=3. * p<0.0332; **p<0.0021, ****p<0.0001, ns: not significant. e) Fluorescence enhancement of CDA incubated with different concentrations of E. coli expressing IMP-1 carbapenemase in the presence of H2O2 (1 mM). f) Fluorescence enhancement of CDA incubated with different concentrations of K. pneumoniae expressing KPC carbapenemase (H2O2, 1 mM). All the studies were duplicated at room temperature with PBS (pH=7.05) as the buffer unless other indicated. The working concentration of CDA was 10 μM. […] Data were collected on a Tecan Safire microplate reader with excitation at 570 nm and emission at 600 nm. […]

The subject of a further assay is E. coli. The assay is described as follows: Two-step filtration CDA/H2O2 urine assay, negative control E. coli. Type of assay: cell-based. The conditions noted are these: E. coli without β-lactamase, concentrated from urine. The protocol: FIG. 4 illustrates the detection of lactam-resistant bacteria in urine samples. a) Illustration of the workflow in bacteria isolation and concentration from a urine sample for detection. The sample is first filtrated by a 5-μm filter to trap cells and large debris followed by a 0.22-μm filter to trap bacteria. The 0.22-μm filter is washed once before PBS/H2O2 (1 mM) is directed through the 0.22-μm filter in the opposite direction with a new syringe to recover the concentrated bacteria for detection in a plate reader. b) Longitudinal monitoring of fluorescence enhancement with CDA and concentrated E. coli, K. pneumoniae, K. pneumoniae/KPC, E. coli/TEM-1, E. coli/IMP-1, E. coli/KPC-3, E. cloacae/IMP, S. marcescens/SME, and E. coli/OXA-48 in the presence of H2O2 (1 mM). Star* indicate clinical isolates. The study was duplicated at room temperature with PBS as the buffer. The signal of CDA alone in PBS containing H2O2 (1 mM) was subtracted and the absolute values were plotted. The working concentration of CDA was 10 μM. Data were collected on a Tecan Safire microplate reader with excitation at 570 nm and emission at 600 nm. A.U. indicates arbitrary units. […]

T1 sequence (P62593 24-286 limits assumed): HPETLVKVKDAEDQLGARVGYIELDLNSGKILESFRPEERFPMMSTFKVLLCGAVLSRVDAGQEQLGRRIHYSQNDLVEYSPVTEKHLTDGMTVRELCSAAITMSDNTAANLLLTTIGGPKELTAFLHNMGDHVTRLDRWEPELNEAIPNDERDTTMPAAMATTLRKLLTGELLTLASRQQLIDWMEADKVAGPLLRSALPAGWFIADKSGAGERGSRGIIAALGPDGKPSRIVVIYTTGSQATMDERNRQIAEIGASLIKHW

Take `CC(=O)Oc1ccc2c(c1)Oc1cc(OC(C)=O)ccc1N2C(=O)OCc1ccc(SCC2=C(C(=O)O)N3C(=O)[C@@H](NC(=O)Cc4ccccc4)[C@H]3SC2)cc1` [CDA, 3-(((4-(((3,7-diacetoxy-10H-phenoxazine-10-carbonyl)oxy)methyl)phenyl)thio)methyl)-8-oxo-7-(2-phenylacetamido)-5-thia-1-azabicyclo[4.2.0]oct-2-ene-2-carboxylic acid]: the “minimum CDA concentration required for reporting β-lactamase/esterase activity” value at TEM-1 Bla (esterase 1 μg/mL, TEM-1 Bla 100 nM, H2O2 1 mM) stood at 100 nM. In addition, the “fluorescence with TEM-1 Bla and esterase without H2O2” value at TEM-1 Bla (no H2O2, oxidation by dissolved oxygen) is on record as “displayed fluorescence turn-on”. For the same compound, the “effect of adding HRP and H2O2 on fluorescence with viable bacteria” value in the assay with E. coli/TEM-1 (HRP 1 unit/mL, H2O2 1 μM, bacteria not lysed) is on record as “contributed little to the fluorescence increase”. For the same compound, the “number of bacteria detectable in one 96 well” value with E. coli/TEM-1 (factoring the 100 μL assay volume) is on record as 100 bacteria. Moreover, the bacteria concentration detectable with E. coli/TEM-1 (noninduced E. coli/TEM-1, H2O2 1 mM, within 2-3 hours) is on record as 10^6-10^7 c.f.u./mL. In the assay with E. coli/IMP-1, this compound gave a bacteria concentration detected of 105 c.f.u./mL. Further, in the assay on E. coli, the “fluorescent signal of negative control” value is “slightly increased signal”.
